# Assay results taken from patent US20030100550A1, “Carboxamide diazepin derivatives, preparation method, use as medicines, pharmaceutical compositions and use thereof” (priority 2002, published 2003).
# Legend:
# Cathepsin K = biological target: T1, Cathepsin K (Homo sapiens, UniProt P43235); assay: Study of Cathepsin K inhibition (fluorescence, Z-Val-arg-AMC); format: biochemical; conditions: substrate Z-Val-arg-AMC 20 μM, enzyme 5 ng/ml, 2H at ambient temperature; read-out: Cathepsin K IC50
# T1 sequence (P43235 115-329): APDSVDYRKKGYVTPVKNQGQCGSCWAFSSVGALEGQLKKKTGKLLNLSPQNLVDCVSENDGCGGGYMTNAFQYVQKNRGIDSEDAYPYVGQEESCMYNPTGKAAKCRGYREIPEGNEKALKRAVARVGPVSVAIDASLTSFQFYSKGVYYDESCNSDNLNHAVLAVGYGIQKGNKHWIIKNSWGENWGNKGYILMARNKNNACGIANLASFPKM
# Experimental: Study of Cathepsin K Inhibition:
# (§1) The products to be tested (10 mM) are diluted to […] in DMSO and distributed into Nunc polystyrene 96 well plates at a rate of 2 μl per well. Column 12 of the plate is reserved for the controls and therefore receives […] of DMSO (without products) per well. The plates are stored at −80° C. and thawed on the day of the experiment.
# (§2) The products are diluted to 50 μM by adding 38 μl of reaction buffer: sodium acetate 100 mM, EDTA 5 mM, DTT […] pH 5.5. The addition as well as all the operations by pipette are carried out with a CybiWell 96 tip pipette. After mixing the solutions, each product is transferred into 2 wells (duplicates) of a Greiner black 384 well plate at a rate of 10 μl per well. Two 96-well plates can therefore be tested in a 384-well plate.
# (§3) A solution of substrate at 50 μM, Z-Val-arg-AMC (Calbiochem), is prepared in the reaction buffer. The substrate, is then distributed into all the wells of the 384-well plate (20 μl per well).
# (§4) A solution of Cathepsin K at 12.5 ng/ml is prepared in the reaction buffer and distributed into all the wells of the 384-well plate (20 μl per well) except for the 16 wells serving as 100% inhibition controls (column 23 and 24, lines I to P) which receive 20 μl of enzyme-free buffer.
# (§5) The plates are then incubated 2H at ambient temperature, then read on Fluoroskan (Labsystems): excitation 390 nm; emission 460 nm
# (§6) The final concentrations of each of the reagents are: products 10 μM, substrate 20 μM, enzyme 5 ng/ml.
# (§7) The % inhibition for each of the products is calculated by using points at 0 and 100% inhibition of each plate as references. The products presenting a significant inhibition are then retested on a range of concentrations from 50 to 0.5 μM to determine an IC50.
# Cathepsin B = biological target: T2, Cathepsin B (Homo sapiens, UniProt P07858); assay: Study of Cathepsin B inhibition (fluorescence, Z-arg-arg-AMC); format: biochemical; conditions: for Cathepsin B, percentage in parentheses beside IC50 value (% inhibition): printed beside 20 μM, meaning not explained; for IC50: substrate Z-arg-arg-AMC 20 μM, enzyme 16 ng/ml, 1 hour at ambient temperature
# T2 construct: purchased Calbiochem
# Experimental: as §1, §2, §3, §4, §5, §6, §7
# Study of Cathepsin B Inhibition:
# Protocol identical to that of Cathepsin K except for:
# Z-arg-arg-AMC substrate (Calbiochem), solution at 50 μM, final concentration 20 μM
# Cathepsin B (Calbiochem), solution at 40 ng/ml, final concentration 16 ng/ml
# Incubation for 1 hour at ambient temperature
IC50 (Cathepsin K) [µM],"Cathepsin B, percentage in parentheses beside IC50 value (% inhibition) (Cathepsin B) [%]",IC50 (Cathepsin B) [µM],Compound
12,25,–,"CC(C)C[C@H](NC(=O)[C@@H]1CCCN2C(=O)CC[C@H](NS(=O)(=O)c3ccc(C(F)(F)F)cc3)C(=O)N12)C(=O)C=[N+]=[N-] [Example 347, 9-[(9S)-[[4-(trifluoromethyl)phenyl]sulphonyl]amino]-N-((3S)-1-diazo-5-methyl-2-oxo-3-hexyl)-octahydro-6,10-dioxo-6H-(1S)-pyridazino[1,2-a][1,2]diazepine-1-carboxamide]"
20,–,1.5,"C[C@H](NC(=O)[C@@H]1CCCN2C(=O)CC[C@H](NC(=O)NCCc3cccs3)C(=O)N12)C(=O)COC(=O)c1c(Cl)cccc1Cl [Example 473, 9-[(9S)-[[[2-(thien-2-yl)-ethyl]amino]carbonyl]amino]-N-[(2S)-4-[(2,6-dichlorobenzoyl)oxy]-3-oxo-2-butyl]-octahydro-6,10-dioxo-6H-(1S)-pyridazino[1,2-a][1,2]diazepine-1-carboxamide]"
2,40,–,"(2-propenyl)(4S)6-diazo-4-[[[(1S,9S)-9-[[[[2-(p-2-yl)-ethyl]amino]carbonyl]amino]-octahydro-6,10-dioxo-6H-pyridazino[1,2-a][1,2]diazepine-1-yl]carbonyl]amino]-5-oxo-hexanoate [Example 44]"
–,–,5,"CC(C)C[C@H](NC(=O)[C@@H]1CCCN2C(=O)CC[C@H](NS(=O)(=O)c3ccc(C(F)(F)F)cc3)C(=O)N12)C(=O)COC(=O)c1c(Cl)cccc1Cl [Example 313, 9-[(9S)-[[[4-(trifluoromethyl)phenyl]sulphonyl]amino]]-N-[(3S)-5-methyl-1-[(2,6-dichlorobenzoyl)oxy]-2-oxo-3-hexyl]-octahydro-6,10-dioxo-6H-(1S)-pyridazino[1,2-a][1,2]diazepine-1-carboxamide]"
–,–,6,"C[C@H](NC(=O)[C@@H]1CCCN2C(=O)CC[C@H](NS(=O)(=O)c3ccc(C(F)(F)F)cc3)C(=O)N12)C(=O)COC(=O)c1c(Cl)cccc1Cl [Example 481, 9-[(9S)-[[4-(trifluoromethyl)phenyl]sulphonyl]amino]-N-[(2S)-4-[(2,6-dichlorobenzoyl)oxy]-3-oxo-2-butyl]-octahydro-6,10-dioxo-6H-(1S)-pyridazino[1,2-a][1,2]diazepine-1-carboxamide]"
–,–,5,"C[C@H](NC(=O)[C@@H]1CCCN2C(=O)CC[C@H](NC(=O)c3ccco3)C(=O)N12)C(=O)COC(=O)c1c(Cl)cccc1Cl [Example 443, 9-[(9S)-[(2-furanyl)carbonyl]amino]-N-[(2S)-4-[(2,6-dichlorobenzoyl)oxy]-3-oxo-2-butyl]-octahydro-6,10-dioxo-6H-(1S)-pyridazino[1,2-a][1,2]diazepine-1-carboxamide]"
–,–,1.5,"COc1cccc(C(=O)N[C@H]2CCC(=O)N3CCC[C@@H](C(=O)N[C@@H](C)C(=O)COC(=O)c4c(Cl)cccc4Cl)N3C2=O)c1 [Example 463, 9-[(9S)-(3-methoxybenzoyl)amino]-N-[(2S)-4-[(2,6-dichlorobenzoyl)oxy]-3-oxo-2-butyl]-octahydro-6,10-dioxo-6H-(1S)-pyridazino[1,2-a][1,2]diazepine-1-carboxamide]"
5,–,–,"CC(C)C[C@H](NC(=O)[C@@H]1CCCN2C(=O)CC[C@H](NC(=O)NCCc3cccs3)C(=O)N12)C(=O)C=[N+]=[N-] [Example 345, 9-[(9S)-[[[2-(thien-2-yl)-ethyl]amino]carbonyl]amino]-N-((3S)-1-diazo-5-methyl-2-oxo-3-hexyl)-octahydro-6,10-dioxo-6H-(1S)-pyridazino[1,2-a][1,2]diazepine-1-carboxamide]"

# The next lines start with the compound.
Compound,IC50 (Cathepsin K) [µM],"Cathepsin B, percentage in parentheses beside IC50 value (% inhibition) (Cathepsin B) [%]",IC50 (Cathepsin B) [µM]
"CC(C)C[C@H](NC(=O)[C@@H]1CCCN2C(=O)CC[C@H](NS(C)(=O)=O)C(=O)N12)C(=O)COC(=O)c1c(Cl)cccc1Cl [Example 304, 9-[(9S)-(methylsulphonyl)amino]-N-[(3S)-5-methyl-1-[(2,6-dichlorobenzoyl)oxy]-2-oxo-3-hexyl]-octahydro-6,10-dioxo-6H-(1S)-pyridazino[1,2-a][1,2]diazepine-1-carboxamide]",12,–,1.5
"O=C(N[C@H]1CCC(=O)N2CCC[C@@H](C(=O)N[C@@H](Cc3ccccc3)C(=O)COC(=O)c3c(Cl)cccc3Cl)N2C1=O)c1ccco1 [Example 192, 9-[(9S)-[(2-furanyl)carbonyl]amino]-N-[(2S)-4-[(2,6-dichlorobenzoyl)oxy]-1-phenyl-3-oxo-2-butyl]-octahydro-6,10-dioxo-6H-(1S)-pyridazino[1,2-a][1,2]diazepine-1-carboxamide]",20,–,18
"COc1cccc(C(=O)N[C@H]2CCC(=O)N3CCC[C@@H](C(=O)N[C@@H](Cc4ccccc4)C(=O)COC(=O)c4c(Cl)cccc4Cl)N3C2=O)c1 [Example 185, 9-[(9S)-(3-methoxybenzoyl)amino]-N-((2S)-4-[(2,6-dichlorobenzoyl)oxy]-1-phenyl-3-oxo-2-butyl]-octahydro-6,10-dioxo-6H-(1S)-pyridazino[1,2-a][1,2]diazepine-1-carboxamide]",–,–,7
"C[C@H](NC(=O)[C@@H]1CCCN2C(=O)CC[C@H](NC(=O)Nc3ccc(Oc4ccccc4)cc3)C(=O)N12)C(=O)COC(=O)c1c(Cl)cccc1Cl [Example 453, 9-[(9S)-[[(4-phenoxyphenyl)amino]carbonyl]amino]-N-[(2S)-4-[(2,6-dichlorobenzoyl)oxy]-3-oxo-2-butyl]-octahydro-6,10-dioxo-6H-(1S)-pyridazino[1,2-a][1,2]diazepine-1-carboxamide]",20,–,9
"C=CCOC(=O)CC[C@H](NC(=O)[C@@H]1CCCN2C(=O)CC[C@H](NS(=O)(=O)c3ccc(-c4ccon4)s3)C(=O)N12)C(=O)C=[N+]=[N-] [Example 48, (2-propenyl)(4S)6-diazo-4-[[[(1S,9S)-9-[[[5-(isoxazol-3-yl)-2-thienyl]sulphonyl]amino]-octahydro-6,10-dioxo-6H-pyridazino[1,2-a][1,2]diazepine-1-yl]carbonyl]amino]-5-oxo-hexanoate]",3,–,7
"CC(C)C[C@H](NC(=O)[C@@H]1CCCN2C(=O)CC[C@H](NS(=O)(=O)c3ccc4ccccc4c3)C(=O)N12)C(=O)COC(=O)c1c(Cl)cccc1Cl [Example 322, 9-[(9S)-[(2-naphthalenyl)sulphonyl]amino]-N-[(3S)-5-methyl-1-[(2,6-dichlorobenzoyl)oxy]-2-oxo-3-hexyl]-octahydro-6,10-dioxo-6H-(1S)-pyridazino[1,2-a][1,2]diazepine-1-carboxamide]",20,–,6
"C=CCOC(=O)CC[C@H](NC(=O)[C@@H]1CCCN2C(=O)CC[C@H](NS(=O)(=O)c3ccc(C(F)(F)F)cc3)C(=O)N12)C(=O)COC(=O)c1c(Cl)cccc1Cl [Example 101, (2-propenyl)(4S)6-[(2,6-dichlorobenzoyl)oxy]-4-[[[(1S,9S)-9-[[[4-(trifluoromethyl)phenyl]sulphonyl]amino]-octahydro-6,10-dioxo-6H-pyridazino[1,2-a][1,2]diazepine-1-yl]carbonyl]amino]-5-oxo-hexanoate]",–,–,6
